The values that follow come from patent EP4744680A1, “TARGETED CHEMICAL DRUG AND PREPARATION METHOD THEREFOR, PHARMACEUTICAL COMPOSITION, AND USE OF TARGETED CHEMICAL DRUG” (Bai Yao Zhi Da (Beijing) Nanobio Technology Co., Ltd., priority 2023, dated 2025).

Data set [1] concerns U251-RFP human glioma. In words: In-vivo efficacy study in the U251-RFP human glioma orthotopic mouse model (drug of Example 9). Details: species or system mouse (BALB/c nude). As to conditions: 15mg/Kg intraperitoneal daily for 4 weeks. From the text:
2.Dosing regimen: Table 41

Data set [2] is described as follows: Body weight and general condition in the U251 study. It is filed as in vivo, mouse (BALB/c nude). As to conditions: 15mg/Kg intraperitoneal daily for 4 weeks.
Description: The relationship between body weight change and the dosing regimen is recorded.Survival and health status are also monitored, including activity levels and food intake during the dosing period. • c) Tumor and Organ Imaging: At the end of the dosing period, mice are euthanized, and their brain, heart, liver, spleen, lungs, and kidneys are excised.

For the compound `Cn1nnc2c(C(N)=O)ncn2c1=O` [Temozolomide], the “Tumor growth inhibition rate (TGI, %) at different days post-inoculation” value in data set [1] (Day 6) came out at 9.9%; in data set [1] (Day 10), 13.2%; in data set [1] (Day 13), 39.6%; in data set [1] (Day 17), 65.6%; in data set [1] (Day 20), 73.7%; in data set [1] (Day 24), 73.7%. For the same compound, in data set [1] (Day 27), the “Tumor growth inhibition rate (TGI, %) at different days post-inoculation” value is reported as 74.2%. Further, the “Tumor weight” value in data set [1] (end of dosing period) amounted to 0.002 ± 0.001 g. Also, the IRTW% in data set [1] (tumor weight inhibition rate) came to 98.34%. The “Body weight change on Day 27 compared to pre-dosing” value in data set [2] was “+12%”.
